Earlier results as cited in patent publication US5112837A, “Quinoline derivatives having anti-tumor activity” (Imperial Chemical Industries PLC, priority 1987, dated 1992).

Key:
[1] = literature references
[2] = test system: human breast, ovarian and liver cancer; conditions: clinical trials

In the case of `C#CCN(Cc1ccc2nc(N)[nH]c(=O)c2c1)c1ccc(C(=O)N[C@@H](CCC(=O)O)C(=O)O)cc1` [CB3717], the “symptoms of toxicity in humans” value [1] is given as “symptoms of toxicity in humans, particularly in relation to the liver and kidney” and the “activity against human cancer” value [2] is given as “promising activity against human breast, ovarian and liver cancer”.
